Experiments:
Design in all cases: species or system female athymic CD 1 mice
MDA-MB-231 = assay: In vivo solid tumor disease model, MDA-MB-231 xenograft; settings: 75 mg/kg once daily PO, vehicle 0.5% CMC in acetate buffer (pH 4.0), 14 days
MNNG-HOS = assay: In vivo solid tumor disease model, MNNG-HOS xenograft; settings: 14 days
MV4-11 = assay: In vivo solid tumor disease model, MV4-11 xenograft; settings: 20 mg/kg once daily p.o., 14 days

Cn1cnc(-c2cc3nccc(Oc4ccc(NC(=S)NC(=O)Cc5ccccc5F)cc4F)c3s2)c1 [Example 137, N-(3-Fluoro-4-(2-(1-methyl-1H-imidazol-4-yl)thieno[3,2-b]pyridin-7-yloxy)phenylcarbamothioyl)-2-(2-fluorophenyl)acetamide]
Tumor Growth Inhibition (%) (MDA-MB-231): b (% TGI in the range of 50-74)

COc1ccccc1CC(=O)NC(=S)Nc1ccc(Oc2ccnc3cc(-c4cn(C)cn4)sc23)c(F)c1 [Example 138, N-(3-Fluoro-4-(2-(1-methyl-1H-imidazol-4-yl)thieno[3,2-b]pyridin-7-yloxy)phenylcarbamothioyl)-2-(2-methoxyphenyl)acetamide]
Tumor Growth Inhibition (%) (MDA-MB-231): b (% TGI in the range of 50-74)

Cn1cnc(-c2cc3nccc(Oc4ccc(NC(=S)NC(=O)Cc5ccc(F)cc5F)cc4F)c3s2)c1 [drawing 493]
Tumor Growth Inhibition (%) (MNNG-HOS; 40 mg/kg once daily p.o.): a (% TGI in the range of 75-100)

Cn1cnc(-c2cc3nccc(Oc4ccc(NC(=S)NC(=O)Cc5ccc(F)cc5)cc4F)c3s2)c1 [drawing 494]
Tumor Growth Inhibition (%) (MNNG-HOS; 75 mg/kg once daily p.o.): a* (greater than 100% tumor growth inhibition (i.e., tumor shrinkage))

CCn1cnc(-c2cc3nccc(Oc4ccc(NC(=S)NC(=O)Cc5ccccc5C)cc4F)c3s2)c1 [drawing 495]
Tumor Growth Inhibition (%) (MNNG-HOS; 20 mg/kg once daily p.o.): c (% TGI in the range of 25-49)

C#Cc1ccccc1CC(=O)NC(=S)Nc1ccc(Oc2ccnc3cc(-c4cn(C)cn4)sc23)c(F)c1 [drawing 497]
Tumor Growth Inhibition (%) (MV4-11): a (% TGI in the range of 75-100)

Source: patent publication US20100249145A1, “Inhibitors of VEGF Receptor and HGF Receptor Signaling” (Methylgene, Inc., priority 2005, published 2010)
